The values below come from patent publication US8536181B2, “Prolyl hydroxylase inhibitors” (Aerpio Therapeutics Inc., priority 2009, dated 2013).

Structures can show the parent of a compound that is named as a salt.

The target in one series is HIFPH2 (EGLN1) (Homo sapiens (Human), UniProt Q9GZT9). Description: EGLN-1 Activity Assay (MALDI-TOF MS). Type of series: biochemical. To be noted: recombinant human EGLN-1-179/426, HIF-1α peptide 556-574. The protocol: The enzyme, quantity predetermined to hydroxylate 20% of substrate in 20 minutes, is added to start the reaction. Where inhibitors are used, compounds are prepared in dimethyl sulfoxide at 10-fold final assay concentration. After 20 minutes at room temperature, the reaction is stopped by transferring 10 μL of reaction mixture to 50 μL of a mass spectrometry matrix solution (α-cyano-4-hydroxycinnamic acid, 5 mg/mL in 50% acetonitrile/0.1% TFA, 5 mM NH4PO4). Two microliters of the mixture is spotted onto a MALDI-TOF MS target plate for analysis with an Applied Biosystems (Foster City, Calif.) 4700 Proteomics Analyzer MALDI-TOF MS equipped with a Nd:YAG laser (355 nm, 3 ns pulse width, 200 Hz repetition rate). Hydroxylated peptide product is identified from substrate by the gain of 16 Da. Data defined as percent conversion of substrate to product is analyzed in GraphPad Prism 4 to calculate IC50 values.

The nature of series [1]: solubility of pharmaceutically acceptable salts in water. Type of series: physicochemical. To be noted: for solubility at 20 min: thermodynamic from solid, distilled deionized water, sonicated 20 min, under 25° C., HPLC. The protocol:
The formulator can determine the solubility of the pharmaceutically acceptable salts of the disclosed inhibitors by any method desirable. The following is a non-limiting example of a procedure for evaluating the solubility of a salt of a disclosed inhibitor. A suspension of tert-butyl-{1[-(4-chlorobenzyl)-3-hydroxy-2-oxo-1,2-dihydropyridin-4-yl]methyl}-piperazine-1-carboxylate methanesulfonate (26.6 mg) in distilled deionized water (3.0 mL) is sonicated for 20 min with water bath temperature under 25° C. The suspension is filtered to remove any insoluble salt. The clear filtrate solution (200 μL) is diluted with distilled deionized water (800 μL) and subjected to HPLC analysis. The following are results for the pharmaceutically acceptable salts outlined in Table VII above.

In series [2] the test system is phosphoglycerate kinase (PGK) expression. Description: PGK expression in wild type murine embryonic fibroblasts. Type of series: cell-based. To be noted: 1 μM, 10 μM vs. wild type control (FIG. 12).
Another series concerns Staphylococcus aureus. As to conditions: dose-dependent; Zinkernagel et al. 2008; cited from earlier work.
The subject of another series is S. aureus. To be noted: Zinkernagel et al. 2008; cited from earlier work.

Chain of HIFPH2 (EGLN1) (Q9GZT9 179-426): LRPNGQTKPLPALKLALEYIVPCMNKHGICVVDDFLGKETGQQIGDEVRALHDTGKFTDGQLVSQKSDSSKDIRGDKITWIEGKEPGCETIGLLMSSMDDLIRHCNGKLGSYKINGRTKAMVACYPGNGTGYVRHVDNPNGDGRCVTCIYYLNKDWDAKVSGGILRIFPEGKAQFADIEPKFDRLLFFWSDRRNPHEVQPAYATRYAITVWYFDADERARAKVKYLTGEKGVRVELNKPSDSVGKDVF

By IC50 is commonly meant the concentration that inhibits the measured activity by half. For “1-Benzyl-3-hydroxy-4-(4-benzylpiperidin-1-ylmethyl)pyridin-2(1H)-one [Compound B9]”, the IC50 on HIFPH2 (EGLN1) came to 17 µM. Still for that read-out and setting: under “1-Benzyl-3-hydroxy-4-(benzylaminomethyl)pyridin-2(1H)-one [Compound C1]” stands 12 µM. On the same count and under the same terms, under `COc1ccccc1Cn1ccc(CN2CCCCCC2)c(O)c1=O` [Compound A18] stands 18 µM. In general, solubility refers to the concentration that dissolves in the medium under given conditions. Consider `CC(C)(C)OC(=O)N1CCN(Cc2ccn(Cc3ccc(Cl)cc3)c(=O)c2O)CC1` [Compound A41, tert-butyl 4-{[1-(4-chlorobenzyl)-3-hydroxy-2-oxo-1,2-dihydropyridin-4-yl]methyl}-piperazine-1-carboxylate], for which, in series [1], the solubility at 20 min is roughly 1 µg/mL. The IC50 at HIFPH2 (EGLN1) amounted to 14 µM. With `COC[C@H]1CCCN1Cc1ccn(Cc2ccccc2)c(=O)c1O` [Compound B5, 1-Benzyl-3-hydroxy-4-{[2-(methoxymethyl)pyrrolidin-1-yl]methyl}pyridin-2(1H)-one], the IC50 on HIFPH2 (EGLN1) came to 9 µM.

For `O=c1c(O)c(CN2CCN(c3ccc(Cl)nn3)CC2)ccn1Cc1ccccc1` [Compound B14, 1-Benzyl-3-hydroxy-4-[4-(6-chloropyridazin-3-yl)piperazin-1-ylmethyl]pyridin-2(1H)-one], the IC50 at HIFPH2 (EGLN1) was determined as 11 µM. With `CC(NCc1ccn(Cc2ccccc2)c(=O)c1O)c1ccccc1` (centres unmarked) [Compound C14, 1-Benzyl-3-hydroxy-4-[(1-phenylethylamino)methyl]pyridin-2(1H)-one], the IC50 on HIFPH2 (EGLN1) worked out at 12 µM. On to `CC1CCC(NCc2ccn(Cc3ccccc3)c(=O)c2O)CC1` (centres unmarked) [Compound C17, 1-Benzyl-3-hydroxy-4-[(4-methylcyclohexylamino)methyl]pyridin-2(1H)-one], for which, at HIFPH2 (EGLN1), the IC50 was determined as 11 µM. Turning to `O=C1NCCCCC1NCc1ccn(Cc2ccccc2)c(=O)c1O` (centres unmarked) [Compound C19, 3-[(1-Benzyl-3-hydroxy-2-oxo-1,2-dihydropyridin-4-yl)methylamino]azepan-2-one], the IC50 at HIFPH2 (EGLN1) was determined as 12 µM.

Consider `CSCCNCc1ccn(Cc2ccccc2)c(=O)c1O` [Compound C33], for which the IC50 on HIFPH2 (EGLN1) came to 16 µM. For `O=c1c(O)c(CNCCCn2ccnc2)ccn1Cc1ccccc1` [Compound C35], the IC50 on HIFPH2 (EGLN1) came to 12 µM. The same measure, in the same setting: in the case of `Cc1ccc(S(=O)(=O)n2ccc(CN3CCC(N4CCCCC4)CC3)c(O)c2=O)cc1` [Compound D10, 1-(4′-Methylbenzenesulfonyl)-3-hydroxy-4-[1,4]Bipiperidinyl-1′-ylmethylpyridin-2(1H)-one] it was 4.4 µM. The same measure, in the same setting: under `Cc1ccc(S(=O)(=O)n2ccc(CN3CCN(c4ccc(Cl)nn4)CC3)c(O)c2=O)cc1` [Compound D14, 1-(4′-Methylbenzenesulfonyl)-3-hydroxy-4-[4-(6-chloropyridazin-3-yl)piperazin-1-ylmethyl]pyridin-2(1H)-one] stands 12 µM. Regarding `O=c1c(O)cccn1Cc1cccc(Cl)c1` [Compound F2, 1-(3-chlorobenzyl)-3-hydroxypyridin-2(1H)-one], the PGK expression entry in series [2] was “up regulation”. In addition, the IC50 at HIFPH2 (EGLN1) turned out to be 5 µM. With `O=c1c(O)cccn1Cc1ccc(Cl)cc1` [Compound F3, 1-(4-chlorobenzyl)-3-hydroxypyridin-2(1H)-one], the IC50 at HIFPH2 (EGLN1) was found to be 1.2 µM. For orientation: Solubility means how much of the substance goes into solution per volume. For `CC(C)(C)OC(=O)N1CCN(Cc2ccn(Cc3ccc(Cl)cc3)c(=O)c2O)CC1` [hydrochloride, tert-butyl-{[1-(4-chlorobenzyl)-3-hydroxy-2-oxo-1,2-dihydropyridin-4-yl]methyl}-piperazine-1-carboxylate], the “Solubility” value in series [1] came out at 5900 µg/mL. `CC(C)(C)OC(=O)N1CCN(Cc2ccn(Cc3ccc(Cl)cc3)c(=O)c2O)CC1.CS(=O)(=O)O` [methanesulfonate, tert-butyl-{1[-(4-chlorobenzyl)-3-hydroxy-2-oxo-1,2-dihydropyridin-4-yl]methyl}-piperazine-1-carboxylate methanesulfonate]: the solubility at 20 min in series [1] turned out to be 16600 µg/mL. For `NC(Cn1ccc(=O)c(O)c1)C(=O)O` (centres unmarked) [mimosine], the “capacity of human phagocytes and whole blood to kill Staphylococcus aureus” value in the series on Staphylococcus aureus is reported as “boost”. The lesion size result in the series on S. aureus is “reduce the lesion size”. Regarding `CC(C)(C)OC(=O)N1CCN(Cc2ccn(Cc3ccc(Cl)cc3)c(=O)c2O)CC1` [p-toluenesulfonate, tert-butyl-{[1-(4-chlorobenzyl)-3-hydroxy-2-oxo-1,2-dihydropyridin-4-yl]methyl}-piperazine-1-carboxylate], the “Solubility” value in series [1] was found to be 2300 µg/mL. Still for that read-out and setting: under “tert-butyl-{[1-(4-chlorobenzyl)-3-hydroxy-2-oxo-1,2-dihydropyridin-4-yl]methyl}-piperazine-1-carboxylate [hydrogensulfonate]” stands 13200 µg/mL.
